Like-named read-outs stand apart in the source and are kept apart here.
What was measured:
[1] = In vitro decarboxylation by partially purified hog kidney AADC (HPLC); type: in vitro ADME; settings: pig; hog kidney AADC, 37°, 2 hours, DL-mixture, HPLC; read-out: decarboxylation to the corresponding allylamine
Experimental: (§1) AFHBA was incubated with partially purified hog kidney AADC at 37° for various times up to 2 hours.

[2] = system: partially purified hog kidney AADC; assay: as above; type: in vitro ADME; settings: with 10 μM MFMD (AADC inhibitor)
Experimental: as §1

neuronal MAO [3] = assay: Ex vivo MAO activity after i.p. injection in rats, neuronal MAO; parameters: species or system rat
Experimental: (§2) Rats were injected with AFHBA (0.5 mg/kg, i.p.) alone or with AFHBA (0.5 mg/kg, i.p.) in combination with MFMD (2.0 mg/kg, i.p.) administered 30 minutes before AFHBA. Animals were killed 18 hours later and MAO activity (5-HT and phenethylamine as substrates) was determined in brain, heart, and liver. In the brain, AFHBA administered alone inhibited neuronal MAO by 72% and non-neuronal MAO by 37%.
(§3) III. Rats were injected with AFMBA (100 mg/kg, i.p.) and were killed 18 hours later. MAO activity was determined in the brain, heart, and liver using 5-HT and PEA.

non-neuronal MAO [4] = assay: Ex vivo MAO activity after i.p. injection in rats, non-neuronal MAO; parameters: species or system rat
Experimental: as §2, §3

MAO = assay: Ex vivo MAO activity in rats, protection by extracerebral AADC inhibitor; parameters: species or system rat; settings: AFHBA 0.5 mg/kg i.p. + MFMD 2.0 mg/kg i.p. 30 min before, liver
Experimental: as §2
(§4) MAO activity was determined in the brain using 5-HT and phenethylamine (PEA) as substrates.

neuronal MAO [5] = assay: Ex vivo brain MAO activity after oral gavage in rats, neuronal MAO; parameters: species or system rat; settings: 18 hours
Experimental: as §4

non-neuronal MAO [6] = assay: Ex vivo brain MAO activity after oral gavage in rats, non-neuronal MAO; parameters: species or system rat; settings: 18 hours
Experimental: as §4

[7] = system: dopamine, DOPAC, 5-HT, and 5-HIAA concentrations in the brain; assay: In vivo brain dopamine, DOPAC, 5-HT and 5-HIAA concentrations after i.p. injection in rats; parameters: species or system rat
Experimental: Rats were injected with AFHBA (0.5 mg/kg, i.p.) alone or with AFHBA (0.5 mg/kg, i.p.) in combination with MFMD (2 mg/kg, i.p.) or carbidopa (50 mg/kg, i.p.) given 30 minutes before the AFHBA. The rats were killed 18 hours later, and dopamine, DOPAC, 5-HT, and 5-HIAA concentrations were determined in the brain.

[8] = system: dopamine, DOPAC, 5-HT, and 5-HIAA concentrations in the brain; assay: In vivo brain dopamine, DOPAC, 5-HT and 5-HIAA concentrations after oral dosing in rats; parameters: species or system rat; settings: 18 hours
Experimental: In a separate experiment, rats were given AFHBA orally at various doses. The rats were killed 18 hours later and dopamine, DOPAC, 5-HT, and 5-HIAA concentrations were determined in the brain.

[9] = system: brain noradrenaline and 5-HT concentrations; assay: Brain amine concentration after 5 days oral MAO inhibitor in rats (Table I); type: in vivo, rat; settings: for Brain Amine Concentration, Noradrenaline / Brain Amine Concentration, 5-HT: 5 days
Experimental: On the 6th day, rats were anaesthetized and heart rate and blood pressure responses to tyramine (0.3-50 mg/kg) administered intraduodenally (i.d.) were determined. Additionally, monoamines and MAO activity were determined in various tissues including brain.

[10] = system: heart rate and blood pressure responses to tyramine; assay: Potentiation of tyramine response after 5 days oral MAO inhibitor in rats (Table I); type: in vivo, rat; settings: 5 days, tyramine i.d.
Experimental: (A) Rats were gavaged daily for 5 days with saline or 2-amino-4-fluoro-3-(3'-hydroxyphenyl)-3-butenoic acid (AFHBA) at dosages of 15.6, 62.5, 250, or 1000 μg/kg or with clorgyline at dosages of 1250 or 5000 μg/kg. On the 6th day, rats were anaesthetized and heart rate and blood pressure responses to tyramine (0.3-50 mg/kg) administered intraduodenally (i.d.) were determined. Additionally, monoamines and MAO activity were determined in various tissues including brain.

[11] = system: brain noradrenaline and 5-HT concentrations; assay: Brain amine concentration, AFHBA with or without carbidopa pretreatment in rats (Table II); type: in vivo, rat; settings: for Brain Amine Concentration, 5-HT / Brain Amine Concentration, Noradrenaline: 5 days
Experimental: (§5) (B) Rats were gavaged with saline or carbidopa given at dosage of 10 or 100 mg/kg. Thirty minutes later, the rats were gavaged with saline or AFHBA given at a dosage of 62.5 μg/kg. This treatment was repeated daily for 5 days. On the 6th day, the rats were anaesthetized and heart rate and blood pressure responses to tyramine (0.3-50 mg/kg, i.d.) were determined. Additionally, monoamines and MAO activity were determined in various tissues, including brain.

[12] = system: heart rate and blood pressure responses to tyramine; type: in vivo, rat; settings: for Tyramine Potentiation: 5 days, tyramine i.d.; for Tyramine Potentiation over and above that of carbidopa: figure in brackets
Experimental: as §5

[13] = AFHBA 0.5 mg/kg i.p. + MFMD 2.0 mg/kg i.p. 30 min before, brain
[14] = AFHBA 0.5 mg/kg i.p. + MFMD 2.0 mg/kg i.p. 30 min before, heart
[15] = AFHBA alone 0.5 mg/kg i.p., 18 hours, brain
[16] = AFHBA alone 0.5 mg/kg i.p., 18 hours, heart
[17] = AFHBA alone 0.5 mg/kg i.p., 18 hours, liver
[18] = AFHBA 0.5 mg/kg i.p. + MFMD 2 mg/kg i.p. 30 min before
[19] = AFHBA 0.5 mg/kg i.p. + carbidopa 50 mg/kg i.p. 30 min before
[20] = AFHBA alone 0.5 mg/kg i.p., 18 hours
[21] = AFHBA 62.5 μg/kg + carbidopa 10 mg/kg
[22] = carbidopa 10000 μg/kg + AFHBA 62.5 μg/kg daily p.o.
[23] = carbidopa 100000 μg/kg + AFHBA 62.5 μg/kg daily p.o.
[24] = saline + AFHBA 62.5 μg/kg daily p.o.

## NC(C(=O)O)C(=CF)c1cccc(O)c1 (racemic) [AFHBA, 2-Amino-4-fluoro-3-(3'-hydroxyphenyl)-3-butenoic acid]
[1]
  metabolised at 2 h: 50%
[2]
  decarboxylation in the presence of MFMD: no decarboxylation was observed
Neuronal MAO [3]; [13]
  inhibition of neuronal MAO, brain, MFMD pretreatment: 68%
Neuronal MAO [3]; [14]
  inhibition of neuronal MAO, heart, MFMD pretreatment: 18%
Neuronal MAO [3]; [15]
  inhibition of neuronal MAO, brain: 72%
Neuronal MAO [3]; [16]
  inhibition of neuronal MAO, heart: 52%
Neuronal MAO [3]; [17]
  MAO inhibition, liver (neuronal): 29%
non-neuronal MAO [4]; [13]
  inhibition of non-neuronal MAO, brain, MFMD pretreatment: 28%
non-neuronal MAO [4]; [14]
  inhibition of non-neuronal MAO, heart, MFMD pretreatment: 4%
non-neuronal MAO [4]; [15]
  inhibition of non-neuronal MAO, brain: 37%
non-neuronal MAO [4]; [16]
  inhibition of non-neuronal MAO, heart: 44%
non-neuronal MAO [4]; [17]
  MAO inhibition, liver (non-neuronal): 38%
MAO
  MAO inhibition, liver, MFMD pretreatment: totally blocked MAO inhibition
Neuronal MAO [5]; 0.5 mg/kg oral
  % Inhibition of MAO, Neuronal: 63%
Neuronal MAO [5]; 1.0 mg/kg oral
  % Inhibition of MAO, Neuronal: 71%
Neuronal MAO [5]; 2.5 mg/kg oral
  % Inhibition of MAO, Neuronal: 95%
non-neuronal MAO [6]; 0.5 mg/kg oral
  % Inhibition of MAO, Non-neuronal: 41%
non-neuronal MAO [6]; 1.0 mg/kg oral
  % Inhibition of MAO, Non-neuronal: 64%
non-neuronal MAO [6]; 2.5 mg/kg oral
  % Inhibition of MAO, Non-neuronal: 83%
[7]; [18]
  % Change from Control, 5-HIAA: -48%
  % Change from Control, 5-HT: +92%
  % Change from Control, DOPAC: -92%
  % Change from Control, Dopamine: +50%
[7]; [19]
  % Change from Control, 5-HIAA: -37%
  % Change from Control, 5-HT: +92%
  % Change from Control, DOPAC: -89%
  % Change from Control, Dopamine: +54%
[7]; [20]
  % Change from Control, 5-HIAA: -34%
  % Change from Control, 5-HT: +30%
  % Change from Control, DOPAC: -76%
  % Change from Control, Dopamine: +25%
[8]; 0.5 mg/kg oral
  % Change from Control, 5-HIAA: -11%
  % Change from Control, 5-HT: +26%
  % Change from Control, DOPAC: -55%
[8]; 1.0 mg/kg oral
  % Change from Control, 5-HIAA: -23%
  % Change from Control, 5-HT: +74%
  % Change from Control, DOPAC: -72%
  % Change from Control, Dopamine: +17%
[8]; 2.5 mg/kg oral
  % Change from Control, 5-HIAA: -41%
  % Change from Control, 5-HT: +140%
  % Change from Control, DOPAC: -79%
  % Change from Control, Dopamine: +28%
[9]; AFHBA 15.6 μg/kg daily p.o., saline 318 ± 12
  Brain Amine Concentration, Noradrenaline: 347 ± 9 ng/g
[9]; AFHBA 15.6 μg/kg daily p.o., saline 507 ± 18
  Brain Amine Concentration, 5-HT: 530 ± 27 ng/g
[9]; AFHBA 62.5 μg/kg daily p.o.
  Brain Amine Concentration, 5-HT: 531 ± 32 ng/g
  Brain Amine Concentration, Noradrenaline: 391 ± 12 ng/g
[9]; AFHBA 250 μg/kg daily p.o.
  Brain Amine Concentration, 5-HT: 1082 ± 98 ng/g
  Brain Amine Concentration, Noradrenaline: 563 ± 23 ng/g
[9]; AFHBA 1000 μg/kg daily p.o.
  Brain Amine Concentration, 5-HT: 1486 ± 67 ng/g
  Brain Amine Concentration, Noradrenaline: 650 ± 29 ng/g
[9]; subacute treatment
  brain noradrenaline and 5-HT concentrations (dose relation): dose-related increases in brain noradrenaline and 5-HT concentrations
[10]; AFHBA 15.6 μg/kg daily p.o., some potentiation at lowest doses of tyramine (footnote c)
  Tyramine Potentiation: 1.0
[10]; AFHBA 62.5 μg/kg daily p.o.
  Tyramine Potentiation: 4.0
[10]; AFHBA 250 μg/kg daily p.o.
  Tyramine Potentiation: 7.1
[10]; AFHBA 1000 μg/kg daily p.o.
  Tyramine Potentiation: 7.7
[11]; [21]
  effect on brain monoamines, combination versus single agents: at least equivalent to 250 μg/kg of AFHBA given alone or to 5000 μg/kg of clorgyline
[11]; [22]
  Brain Amine Concentration, 5-HT: 894 ± 25 ng/g
  Brain Amine Concentration, Noradrenaline: 694 ± 24 ng/g
[11]; [23]
  Brain Amine Concentration, 5-HT: 815 ± 35 ng/g
  Brain Amine Concentration, Noradrenaline: 327 ± 23 ng/g
[11]; [24]
  Brain Amine Concentration, 5-HT: 531 ± 32 ng/g
  Brain Amine Concentration, Noradrenaline: 391 ± 12 ng/g
[12]; [21]
  potentiation of the tyramine response, combination versus AFHBA alone: the potentiation did not exceed that of AFHBA given alone
[12]; [22]
  Tyramine Potentiation: 3.1
[12]; carbidopa 10000 μg/kg + AFHBA 62.5 μg/kg
  Tyramine Potentiation over and above that of carbidopa: 2.8
[12]; [23]
  Tyramine Potentiation: 5.0
[12]; carbidopa 100000 μg/kg + AFHBA 62.5 μg/kg
  Tyramine Potentiation over and above that of carbidopa: 2.2
[12]; [24]
  Tyramine Potentiation: 4.0

Reference: patent publication US4421767A, “Compounds and methods for treating depression” (priority 1982, dated 1983)
